Here are results for one molecule from ChEMBL document CHEMBL2169877, “Antagonists of 5-HT₆ receptors. Substituted 3-(phenylsulfonyl)pyrazolo[1,5-a]pyrido[3,4-e]pyrimidines and 3-(phenylsulfonyl)pyrazolo[1,5-a]pyrido[4,3-d]pyrimidines-Synthesis and 'structure-activity' relationship” (Bioorg Med Chem Lett, 2012).

The target in assay [1] is D(2) dopamine receptor (Homo sapiens) (UniProt P14416). The experiment in a line: Binding affinity to dopamine D2L receptor at 1 uM by radioligand displacement assay. (In general: Displacement assays read how much labelled ligand stays bound in the presence of the test substance.)
For assay [2] the target is unchanged. In words: Binding affinity to dopamine D2S receptor at 1 uM by radioligand displacement assay.
The target of assay [3] is Sodium-dependent dopamine transporter (Homo sapiens) (UniProt Q01959). The experiment in a line: Binding affinity to DAT at 1 uM by radioligand displacement assay.
Assay [4] can be described thus: Binding affinity to peripheral benzodiazepine receptor at 1 uM by radioligand displacement assay.
Assay [5] is described as follows: Binding affinity to GABA-B receptor at 1 uM by radioligand displacement assay.
Assay [6] has as its target Metabotropic glutamate receptor 5 (Homo sapiens) (UniProt P41594). In words: Binding affinity to mGluR5 at 1 uM by radioligand displacement assay.
Assay [7] can be described thus: Binding affinity to glycine transporter at 1 uM by radioligand displacement assay.
Assay [8] deals with Muscarinic acetylcholine receptor M1 (Homo sapiens) (UniProt P11229). The experiment in a line: Binding affinity to M1 receptor at 1 uM by radioligand displacement assay.
For assay [9], the target named is 5-hydroxytryptamine receptor 1A (Homo sapiens) (UniProt P08908). In words: Binding affinity to 5HT1A receptor at 1 uM by radioligand displacement assay.
The target in assay [10] is 5-hydroxytryptamine receptor 1B (Homo sapiens) (UniProt P28222). The experiment in a line: Binding affinity to 5HT1B receptor at 1 uM by radioligand displacement assay.
The target in assay [11] is 5-hydroxytryptamine receptor 2B (Homo sapiens, UniProt P41595). In words: Antagonist activity at human recombinant 5HT2B receptor expressed in HEK293 cells assessed as inhibition of alphamethyl5HT-induced intracellular calcium mobilization by Fluo4-based staining method. Particulars: hek293. Type of assay: functional, cell-based. Background: Calcium flux is commonly read through the fluorescence of an indicator in the cells.

Assay [12] can be described thus: Binding affinity to GABA(A) receptor TBOB binding site at 1 uM by radioligand displacement assay.
For assay [13], the target named is 5-hydroxytryptamine receptor 5A (Homo sapiens) (UniProt P47898). The experiment in a line: Binding affinity to 5HT5 receptor at 1 uM by radioligand displacement assay.
Assay [14] is described as follows: Binding affinity to PDE1 at 1 uM by radioligand displacement assay.
In assay [15] the target is cAMP and cAMP-inhibited cGMP 3',5'-cyclic phosphodiesterase 10A (Homo sapiens) (UniProt Q9Y233). The experiment in a line: Binding affinity to PDE10A1 at 1 uM by radioligand displacement assay.
The target in assay [16] is Cyclin-dependent kinase 5/CDK5 activator 1 (Homo sapiens) (UniProt Q00535+Q15078). In words: Binding affinity to cdk5/p35 at 1 uM by radioligand displacement assay. The format is protein-complex assay.
Assay [17] deals with Glycogen synthase kinase-3 beta (Homo sapiens) (UniProt P49841). In words: Binding affinity to GSK3beta at 1 uM by radioligand displacement assay.
Assay [18] addresses RAC-alpha serine/threonine-protein kinase (Homo sapiens) (UniProt P31749). The experiment in a line: Binding affinity to AKT1 at 1 uM by radioligand displacement assay.
The target in assay [19] is Adenosine receptor A2a (Homo sapiens) (UniProt P29274). In words: Binding affinity to adenosine A2A receptor at 1 uM by radioligand displacement assay.
Assay [20] deals with Adenosine receptor A3 (Homo sapiens) (UniProt P0DMS8). In words: Binding affinity to adenosine A3 receptor at 1 uM by radioligand displacement assay.
Assay [21] addresses Alpha-1A adrenergic receptor (Homo sapiens) (UniProt P35348). In words: Binding affinity to alpha1A adrenergic receptor at 1 uM by radioligand displacement assay.
Assay [22] in a line: Binding affinity to L-type calcium channel benzothiazepine binding site at 1 uM by radioligand displacement assay.
The nature of assay [23]: Binding affinity to L-type calcium channel phenylalkylamine binding site at 1 uM by radioligand displacement assay.

Active and inactive are the calls of the source. The calls are words filed in the database; no cut-off is given here.

Sequence of D(2) dopamine receptor (Homo sapiens) (P14416 whole entry): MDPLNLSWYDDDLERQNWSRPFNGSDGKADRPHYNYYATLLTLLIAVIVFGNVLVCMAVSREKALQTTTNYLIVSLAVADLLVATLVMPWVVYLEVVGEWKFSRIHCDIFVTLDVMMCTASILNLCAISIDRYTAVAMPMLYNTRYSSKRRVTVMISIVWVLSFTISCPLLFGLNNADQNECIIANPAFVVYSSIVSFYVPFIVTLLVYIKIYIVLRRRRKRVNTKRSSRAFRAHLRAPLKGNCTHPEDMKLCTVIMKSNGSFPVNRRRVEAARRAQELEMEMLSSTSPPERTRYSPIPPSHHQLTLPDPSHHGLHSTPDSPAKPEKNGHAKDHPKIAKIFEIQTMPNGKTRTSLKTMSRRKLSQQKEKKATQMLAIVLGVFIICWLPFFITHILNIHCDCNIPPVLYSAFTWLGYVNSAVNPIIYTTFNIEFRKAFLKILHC
Sequence of 5-hydroxytryptamine receptor 1A (Homo sapiens) (P08908 whole entry): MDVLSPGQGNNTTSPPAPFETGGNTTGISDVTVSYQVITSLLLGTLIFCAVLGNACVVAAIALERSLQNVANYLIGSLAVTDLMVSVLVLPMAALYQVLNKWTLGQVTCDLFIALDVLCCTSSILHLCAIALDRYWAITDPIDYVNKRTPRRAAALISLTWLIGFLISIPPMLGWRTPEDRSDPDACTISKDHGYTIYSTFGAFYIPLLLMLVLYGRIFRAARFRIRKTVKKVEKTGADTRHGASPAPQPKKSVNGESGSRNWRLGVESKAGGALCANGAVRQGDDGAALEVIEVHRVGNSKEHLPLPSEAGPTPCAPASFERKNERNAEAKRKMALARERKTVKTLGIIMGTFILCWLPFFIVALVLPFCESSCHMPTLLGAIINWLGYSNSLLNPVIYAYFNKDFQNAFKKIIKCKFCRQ
Sequence of Adenosine receptor A3 (Homo sapiens) (P0DMS8 whole entry): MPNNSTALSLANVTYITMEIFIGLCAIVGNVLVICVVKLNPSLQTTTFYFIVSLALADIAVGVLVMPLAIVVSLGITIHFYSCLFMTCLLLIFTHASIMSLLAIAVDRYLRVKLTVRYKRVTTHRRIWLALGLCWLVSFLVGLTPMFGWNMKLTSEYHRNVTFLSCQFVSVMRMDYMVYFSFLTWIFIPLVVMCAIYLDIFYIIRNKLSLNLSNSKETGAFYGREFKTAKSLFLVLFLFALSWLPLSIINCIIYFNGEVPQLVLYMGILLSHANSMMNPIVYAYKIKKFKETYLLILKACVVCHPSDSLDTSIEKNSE
Sequence of Cyclin-dependent kinase 5/CDK5 activator 1 (Homo sapiens) (Q00535 whole entry): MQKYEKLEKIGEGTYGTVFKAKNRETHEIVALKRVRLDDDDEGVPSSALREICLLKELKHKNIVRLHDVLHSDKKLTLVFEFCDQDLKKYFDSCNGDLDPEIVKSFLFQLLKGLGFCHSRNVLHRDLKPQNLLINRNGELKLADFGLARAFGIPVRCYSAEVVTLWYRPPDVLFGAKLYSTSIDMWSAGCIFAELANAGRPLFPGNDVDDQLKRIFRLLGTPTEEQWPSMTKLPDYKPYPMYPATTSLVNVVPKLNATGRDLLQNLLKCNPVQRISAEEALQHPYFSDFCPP
Sequence of Cyclin-dependent kinase 5/CDK5 activator 1 (Homo sapiens) (Q15078 99-307 partner limits assumed): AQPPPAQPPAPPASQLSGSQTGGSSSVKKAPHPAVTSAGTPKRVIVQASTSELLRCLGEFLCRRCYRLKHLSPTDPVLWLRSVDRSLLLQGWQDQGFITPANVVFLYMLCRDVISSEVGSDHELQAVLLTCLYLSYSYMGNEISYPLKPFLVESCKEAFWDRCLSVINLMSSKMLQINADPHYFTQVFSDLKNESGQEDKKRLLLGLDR
Sequence of 5-hydroxytryptamine receptor 5A (Homo sapiens) (P47898 whole entry): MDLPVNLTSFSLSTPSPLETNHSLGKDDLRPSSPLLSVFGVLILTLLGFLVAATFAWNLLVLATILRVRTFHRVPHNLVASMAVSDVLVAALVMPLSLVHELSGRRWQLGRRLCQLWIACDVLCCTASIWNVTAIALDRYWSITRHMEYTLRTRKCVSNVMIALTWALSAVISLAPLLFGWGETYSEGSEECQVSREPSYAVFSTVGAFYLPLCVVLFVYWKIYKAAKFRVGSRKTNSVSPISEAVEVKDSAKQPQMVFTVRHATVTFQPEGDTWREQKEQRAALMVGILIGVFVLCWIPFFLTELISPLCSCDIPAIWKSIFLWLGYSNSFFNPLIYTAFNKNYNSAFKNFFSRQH
Sequence of Glycogen synthase kinase-3 beta (Homo sapiens) (P49841 whole entry, looked up): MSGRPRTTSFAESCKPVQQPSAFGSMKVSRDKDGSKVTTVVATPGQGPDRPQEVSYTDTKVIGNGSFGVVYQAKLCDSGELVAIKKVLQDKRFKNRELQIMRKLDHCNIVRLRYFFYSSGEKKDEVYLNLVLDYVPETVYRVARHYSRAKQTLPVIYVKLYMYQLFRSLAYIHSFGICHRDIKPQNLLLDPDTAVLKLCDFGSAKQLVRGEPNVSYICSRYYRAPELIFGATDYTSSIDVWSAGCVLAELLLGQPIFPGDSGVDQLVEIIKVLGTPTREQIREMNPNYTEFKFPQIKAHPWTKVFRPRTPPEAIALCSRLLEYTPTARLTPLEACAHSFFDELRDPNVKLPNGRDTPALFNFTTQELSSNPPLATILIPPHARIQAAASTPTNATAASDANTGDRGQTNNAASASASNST
Sequence of Muscarinic acetylcholine receptor M1 (Homo sapiens) (P11229 whole entry): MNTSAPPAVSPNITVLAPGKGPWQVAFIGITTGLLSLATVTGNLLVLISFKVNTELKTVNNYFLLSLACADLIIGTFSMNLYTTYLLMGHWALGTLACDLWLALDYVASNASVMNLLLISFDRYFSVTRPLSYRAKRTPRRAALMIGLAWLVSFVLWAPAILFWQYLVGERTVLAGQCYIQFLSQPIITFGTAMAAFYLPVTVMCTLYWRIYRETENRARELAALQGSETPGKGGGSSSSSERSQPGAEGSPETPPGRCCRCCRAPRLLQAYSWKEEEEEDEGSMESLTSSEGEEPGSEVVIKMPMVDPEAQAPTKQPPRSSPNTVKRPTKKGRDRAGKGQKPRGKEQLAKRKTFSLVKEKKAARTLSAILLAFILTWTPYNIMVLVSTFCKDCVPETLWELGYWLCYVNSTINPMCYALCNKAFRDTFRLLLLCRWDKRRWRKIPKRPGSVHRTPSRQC
Sequence of cAMP and cAMP-inhibited cGMP 3',5'-cyclic phosphodiesterase 10A (Homo sapiens) (Q9Y233 whole entry): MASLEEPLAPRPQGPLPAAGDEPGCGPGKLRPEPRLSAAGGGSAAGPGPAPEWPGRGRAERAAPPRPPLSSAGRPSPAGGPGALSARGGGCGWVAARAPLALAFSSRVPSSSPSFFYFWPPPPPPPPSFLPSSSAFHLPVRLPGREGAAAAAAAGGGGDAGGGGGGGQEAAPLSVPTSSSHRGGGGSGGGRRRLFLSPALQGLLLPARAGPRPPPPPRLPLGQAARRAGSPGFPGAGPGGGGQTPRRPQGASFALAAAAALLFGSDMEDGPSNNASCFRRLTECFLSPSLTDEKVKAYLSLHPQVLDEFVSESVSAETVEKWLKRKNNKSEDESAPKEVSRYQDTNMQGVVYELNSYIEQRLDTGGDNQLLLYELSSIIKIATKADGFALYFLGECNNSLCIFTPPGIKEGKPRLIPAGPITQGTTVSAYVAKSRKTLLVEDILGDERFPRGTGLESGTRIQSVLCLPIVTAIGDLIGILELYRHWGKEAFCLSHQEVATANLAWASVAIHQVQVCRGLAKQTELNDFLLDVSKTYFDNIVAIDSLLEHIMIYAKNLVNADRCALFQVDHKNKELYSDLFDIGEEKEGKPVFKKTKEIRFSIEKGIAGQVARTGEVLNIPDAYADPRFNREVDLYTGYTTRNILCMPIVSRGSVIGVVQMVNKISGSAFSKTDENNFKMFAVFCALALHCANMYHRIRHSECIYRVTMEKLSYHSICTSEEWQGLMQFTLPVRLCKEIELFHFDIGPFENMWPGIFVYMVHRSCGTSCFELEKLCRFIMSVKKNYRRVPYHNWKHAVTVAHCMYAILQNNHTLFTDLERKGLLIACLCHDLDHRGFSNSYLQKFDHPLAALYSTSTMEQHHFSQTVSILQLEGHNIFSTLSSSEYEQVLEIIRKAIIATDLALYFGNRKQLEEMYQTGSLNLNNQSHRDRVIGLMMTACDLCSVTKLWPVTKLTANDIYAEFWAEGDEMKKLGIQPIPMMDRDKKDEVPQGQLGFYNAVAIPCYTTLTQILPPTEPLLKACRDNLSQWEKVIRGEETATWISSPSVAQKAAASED
Sequence of 5-hydroxytryptamine receptor 2B (P41595 whole entry): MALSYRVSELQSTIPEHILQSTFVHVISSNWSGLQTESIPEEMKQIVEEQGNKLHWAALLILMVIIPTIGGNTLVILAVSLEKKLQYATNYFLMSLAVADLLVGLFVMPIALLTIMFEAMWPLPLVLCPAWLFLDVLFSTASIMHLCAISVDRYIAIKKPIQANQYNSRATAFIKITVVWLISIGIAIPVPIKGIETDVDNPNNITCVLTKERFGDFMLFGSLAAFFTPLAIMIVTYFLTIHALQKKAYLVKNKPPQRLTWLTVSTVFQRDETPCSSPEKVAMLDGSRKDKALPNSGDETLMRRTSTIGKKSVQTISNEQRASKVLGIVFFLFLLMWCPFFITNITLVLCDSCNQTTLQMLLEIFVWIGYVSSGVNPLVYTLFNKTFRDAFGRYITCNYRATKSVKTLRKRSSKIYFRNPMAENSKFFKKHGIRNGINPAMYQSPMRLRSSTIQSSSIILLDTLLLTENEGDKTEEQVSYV
Sequence of Alpha-1A adrenergic receptor (Homo sapiens) (P35348 whole entry): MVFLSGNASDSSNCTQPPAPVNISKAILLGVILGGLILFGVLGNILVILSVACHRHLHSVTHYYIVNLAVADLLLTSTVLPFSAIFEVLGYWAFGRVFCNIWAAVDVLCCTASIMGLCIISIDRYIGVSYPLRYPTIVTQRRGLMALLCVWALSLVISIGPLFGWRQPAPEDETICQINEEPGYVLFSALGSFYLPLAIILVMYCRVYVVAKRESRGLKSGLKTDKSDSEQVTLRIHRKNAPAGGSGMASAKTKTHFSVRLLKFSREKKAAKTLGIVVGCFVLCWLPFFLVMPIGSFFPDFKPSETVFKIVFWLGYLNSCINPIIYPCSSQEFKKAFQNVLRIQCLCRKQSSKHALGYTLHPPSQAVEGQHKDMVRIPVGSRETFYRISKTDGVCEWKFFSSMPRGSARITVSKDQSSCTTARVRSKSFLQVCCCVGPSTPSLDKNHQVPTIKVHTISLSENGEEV

Consider `CNc1nn2cc3c(nc2c1S(=O)(=O)c1ccccc1)CCN(C)C3`, for which the result in [1], in [2], in assay [3], in assay [4], in [5] and in assay [6] was inactive. Besides, the outcome in [7], in [8], in assay [9], in assay [10], in assay [12] and in assay [13] was inactive. Moreover, the result in assay [14], in assay [15], in assay [16], in [17], in assay [18] and in assay [19] was inactive. Besides, the result in [20], in assay [21], in [22] and in assay [23] was inactive. For the same molecule, the IC50 entry in assay [11] is given as “Not Active”.
